This is an account of results in patent US20130336889A1, “NANOPARTICLE AND METHOD FOR DETECTING OR TREATING A TUMOR USING THE SAME” (NATIONAL TAIWAN UNIVERSITY, priority 2012, published 2013).

Molecules are shown by their SMILES.

Data set [1] is described as follows: Absorbance spectra (UV-vis). In kind it is physicochemical.
Another data set relates to HCT-116 cells. Put plainly: Cytotoxicity by MTT assay without or with NIR irradiation. In kind it is cell-based, human. The settings on record: 2.5 μg/mL. The procedure:
Cell viability was determined with the MTT assay and a scanning multiwell ELISA reader (Microplate Autoreader EL311, Bio-Tek Instruments Inc., Winooski, Vt., USA). The fraction of live cells was calculated by dividing the mean optical density obtained from treated cells by the mean optical density from untreated control cells.
On the technique in general: Tetrazolium dyes change colour on reduction, which living cells bring about.

On to `CCCN1C(=CC=C2CCCC(C=CC3=[N+](CCC)c4ccccc4C3(C)C)=C2Cl)C(C)(C)c2ccccc21.[I-]` [free IR-780 iodide, IR-780 iodide], for which the “maximum wavelength (λmax) of absorption” value in data set [1] (IR-780 dye diluted in THF, IR-780 micelles in PBS) is “about 795 nm”. Also, in data set [1] (aggregated in aqueous buffer, broad and blue-shifted), the “λmax of absorption peak” value is recorded as 775 nm. Moreover, the results for the excess cells killed with HCT-116 cells (808 nm 0.6 W/cm^2 NIR irradiation 10 min) and in the data set with HCT-116 cells (808 nm 0.6 W/cm^2 NIR irradiation 20 min) were 0.3% and 26.8%, respectively.
